Experimental data: ChEMBL document CHEMBL3046742, “Isolation and anxiolytic activity of 3,4-bis(3,4-dimethoxyphenyl)furan-2,5-dione from the ethanolic extract of heart wood of Cedrus deodara” (2012)
Activity calls are given as the source filed them. No cut-off for these calls is given here.

How the values were obtained:
Mus musculus [1] = assay: Anxiolytic activity in Mus musculus Swiss albino (mouse) assessed as time spent in neutral zone at 2 mg/kg, po administered 1 hr prior to testing measured for 5 min by plus-maze test (reference value: 70 +/- 5.63 secs); type: functional
Mus musculus [2] = assay: Anxiolytic activity in Mus musculus Swiss albino (mouse) assessed as increase in time spent in light zone at 2 mg/kg, po administered 1 hr prior to testing measured for 5 min by light-dark test (reference value: 64 +/- 4.02 secs); type: functional
Mus musculus [3] = assay: Anxiolytic activity in Mus musculus Swiss albino (mouse) assessed as increase in ambulation at 2 mg/kg, po administered 45 min prior to testing measured for 5 min by open-field test relative to control; type: functional, organism-based; set-up: dose 2 mg/kg
Mus musculus [4] = assay: Anxiolytic activity in Mus musculus Swiss albino (mouse) assessed as increase in time spent in open arms at 2 mg/kg, po administered 1 hr prior to testing measured for 5 min by plus-maze test (reference value: 23 +/- 1.63 secs); type: functional
Mus musculus [5] = assay: Anxiolytic activity in Mus musculus Swiss albino (mouse) assessed as time spent in neutral zone at 100 mg/kg, po administered 1 hr prior to testing measured for 5 min by plus-maze test (reference value: 70 +/- 5.63 secs); type: functional
Mus musculus [6] = assay: Anxiolytic activity in Mus musculus Swiss albino (mouse) assessed as increase in time spent in light zone at 30 mg/kg, po administered 1 hr prior to testing measured for 5 min by light-dark test (reference value: 64 +/- 4.02 secs); type: functional
Mus musculus [7] = assay: Anxiolytic activity in Mus musculus Swiss albino (mouse) assessed as time spent in neutral zone at 30 mg/kg, po administered 1 hr prior to testing measured for 5 min by plus-maze test (reference value: 70 +/- 5.63 secs); type: functional
Mus musculus [8] = assay: Anxiolytic activity in Mus musculus Swiss albino (mouse) assessed as increase in time spent in light zone at 100 mg/kg, po administered 1 hr prior to testing measured for 5 min by light-dark test (reference value: 64 +/- 4.02 secs); type: functional
Mus musculus [9] = assay: Anxiolytic activity in Mus musculus Swiss albino (mouse) assessed as increase in ambulation at 100 mg/kg, po administered 45 min prior to testing measured for 5 min by open-field test relative to control; type: functional, organism-based; set-up: dose 100 mg/kg
Mus musculus [10] = assay: Anxiolytic activity in Mus musculus Swiss albino (mouse) assessed as time spent in neutral zone at 10 mg/kg, po administered 1 hr prior to testing measured for 5 min by plus-maze test (reference value: 70 +/- 5.63 secs); type: functional
Mus musculus [11] = assay: Anxiolytic activity in Mus musculus Swiss albino (mouse) assessed as increase in time spent in open arms at 100 mg/kg, po administered 1 hr prior to testing measured for 5 min by plus-maze test (reference value: 23 +/- 1.63 secs); type: functional
Mus musculus [12] = assay: Anxiolytic activity in Mus musculus Swiss albino (mouse) assessed as increase in time spent in open arms at 10 mg/kg, po administered 1 hr prior to testing measured for 5 min by plus-maze test (reference value: 23 +/- 1.63 secs); type: functional
Mus musculus [13] = assay: Anxiolytic activity in Mus musculus Swiss albino (mouse) assessed as increase in ambulation at 200 to 400 mg/kg, po administered 45 min prior to testing measured for 5 min by open-field test relative to control; type: functional, organism-based
Mus musculus [14] = assay: Anxiolytic activity in Mus musculus Swiss albino (mouse) assessed as increase in time spent in open arms at 30 mg/kg, po administered 1 hr prior to testing measured for 5 min by plus-maze test (reference value: 23 +/- 1.63 secs); type: functional
Mus musculus [15] = assay: Anxiolytic activity in Mus musculus Swiss albino (mouse) assessed as increase in time spent in light zone at 10 mg/kg, po administered 1 hr prior to testing measured for 5 min by light-dark test (reference value: 64 +/- 4.02 secs); type: functional
Mus musculus [16] = assay: Anxiolytic activity in Mus musculus Swiss albino (mouse) assessed as decrease in immobility duration at 2 mg/kg, po administered 1 hr prior to testing measured for 5 min by light-dark test relative to control; type: functional, organism-based; set-up: dose 2 mg/kg

## CN1C(=O)CN=C(c2ccccc2)c2cc(Cl)ccc21 [DIAZEPAM]
Mus musculus [1]
  Time: 32 s
Mus musculus [2]
  Time: 171 s
Mus musculus [3]
  Activity: Active
Mus musculus [4]
  Time: 166 s

## COc1ccc(C2=C(c3ccc(OC)c(OC)c3)C(=O)OC2=O)cc1OC
Mus musculus [5]
  Time: 29 s
Mus musculus [6]
  Time: 120 s
Mus musculus [7]
  Time: 45 s
Mus musculus [8]
  Time: 145 s
Mus musculus [9]
  Activity: Active
Mus musculus [10]
  Time: 65 s
Mus musculus [11]
  Time: 151 s
Mus musculus [12]
  Time: 66 s
Mus musculus [13]
  Activity: inactive
Mus musculus [14]
  Time: 110 s
Mus musculus [15]
  Time: 95 s
Mus musculus [16]
  Activity: Active
